Columns and labels:
PtGSTF8 = molecular target: T1, PtGSTF8 (Populus trichocarpa, UniProt B9MWW0); test: X-ray crystal structure, […] Å; format: binding; conditions: ternary complex with GSH; H-site; substrate analogue
T1 construct: gene POPTR_017G138800; full length, expressed in E. coli from pET-28b-based pANT35, GSTrap purified, apo (GSH removed with DTT)
T1 sequence (B9MWW0 1-214): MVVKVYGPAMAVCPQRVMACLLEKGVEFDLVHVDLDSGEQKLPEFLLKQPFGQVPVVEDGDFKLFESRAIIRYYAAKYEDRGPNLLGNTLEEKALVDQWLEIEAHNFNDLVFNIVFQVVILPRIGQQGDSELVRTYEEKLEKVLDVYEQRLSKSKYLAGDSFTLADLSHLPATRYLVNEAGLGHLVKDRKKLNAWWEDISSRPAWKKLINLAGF

VvGST2 = molecular target: T2, VvGST2 (Vitis vinifera, UniProt A0T2X7); test: GSH-transferase assay, A340nm, clarified E. coli lysate; format: biochemical; conditions: 1 mM CDNB, 1 mM GSH, 50 mM Tris pH 7.5, 30 °C
T2 construct: gene GST2; expressed in E. coli from pET-28b-based plasmid, clarified lysate
T2 sequence (A0T2X7 1-214): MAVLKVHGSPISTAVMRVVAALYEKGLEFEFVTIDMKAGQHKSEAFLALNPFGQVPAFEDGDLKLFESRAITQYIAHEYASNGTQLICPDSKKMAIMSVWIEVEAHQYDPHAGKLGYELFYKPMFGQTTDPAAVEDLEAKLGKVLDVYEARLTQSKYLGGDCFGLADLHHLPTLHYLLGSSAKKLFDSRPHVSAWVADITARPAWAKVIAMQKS

PhAN9 = molecular target: T3, PhAN9 (Petunia x hybrida, UniProt O24261); test: as above; format: biochemical; conditions: 1 mM CDNB, 1 mM GSH, 50 mM Tris pH 7.5, 30 °C
T3 construct: expressed in E. coli from pET-28b-based plasmid, clarified lysate
T3 sequence (O24261 1-232): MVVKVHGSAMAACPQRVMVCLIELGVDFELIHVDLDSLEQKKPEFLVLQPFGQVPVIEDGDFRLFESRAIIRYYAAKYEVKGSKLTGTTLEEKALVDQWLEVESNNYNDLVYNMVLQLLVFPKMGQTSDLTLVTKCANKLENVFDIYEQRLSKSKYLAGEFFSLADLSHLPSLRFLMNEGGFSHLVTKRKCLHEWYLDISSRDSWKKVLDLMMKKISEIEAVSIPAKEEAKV

ZmBZ2 = molecular target: T4, ZmBZ2 (Zea mays, UniProt P50472); test: as above; format: biochemical; conditions: 1 mM CDNB, 1 mM GSH, 50 mM Tris pH 7.5, 30 °C
T4 construct: gene BZ2; expressed in E. coli from pET-28b-based plasmid, clarified lysate
T4 sequence (P50472 1-236): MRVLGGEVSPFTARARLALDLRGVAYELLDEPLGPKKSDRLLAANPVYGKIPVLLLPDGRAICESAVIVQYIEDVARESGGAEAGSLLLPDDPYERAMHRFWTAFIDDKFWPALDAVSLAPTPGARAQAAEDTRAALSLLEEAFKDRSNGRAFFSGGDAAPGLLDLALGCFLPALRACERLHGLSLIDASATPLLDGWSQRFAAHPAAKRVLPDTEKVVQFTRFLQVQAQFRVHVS

AtTT19 [1] = molecular target: T5, AtTT19 (Arabidopsis thaliana, UniProt Q9FE46); test: as above; format: biochemical; conditions: 1 mM CDNB, 1 mM GSH, 50 mM Tris pH 7.5, 30 °C
T5 construct: gene GSTF12; expressed in E. coli from pET-28b-based plasmid, clarified lysate
T5 sequence (Q9FE46 1-214): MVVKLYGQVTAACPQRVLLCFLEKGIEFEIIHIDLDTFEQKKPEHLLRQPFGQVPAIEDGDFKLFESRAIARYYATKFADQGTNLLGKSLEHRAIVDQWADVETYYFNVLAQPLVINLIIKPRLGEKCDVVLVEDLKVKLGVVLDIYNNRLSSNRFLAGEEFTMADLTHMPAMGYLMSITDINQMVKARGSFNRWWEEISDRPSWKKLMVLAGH

AtGSTF2 = molecular target: T6, AtGSTF2 (Arabidopsis thaliana, UniProt P46422); test: as above; format: biochemical; conditions: 1 mM CDNB, 1 mM GSH, 50 mM Tris pH 7.5, 30 °C
T6 construct: gene GSTF2; expressed in E. coli from pET-28b-based plasmid, clarified lysate
T6 sequence (P46422 1-212): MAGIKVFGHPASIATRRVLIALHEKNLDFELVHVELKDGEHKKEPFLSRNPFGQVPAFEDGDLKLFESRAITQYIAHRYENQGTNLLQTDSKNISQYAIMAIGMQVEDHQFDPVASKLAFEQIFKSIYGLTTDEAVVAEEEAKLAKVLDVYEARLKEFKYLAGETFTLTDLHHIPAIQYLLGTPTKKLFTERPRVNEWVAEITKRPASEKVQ

AtTT19 [2] = molecular target: T5, AtTT19; test: cyanidin formation by clarified E. coli lysate expressing the GST; format: biochemical; conditions: 20 μM GSH, 100 mM MOPSO pH 6.2, 30 °C
[3] = substrate: Oc1cc(O)c2c(c1)O[C@H](c1ccc(O)c(O)c1)C(O)(O)[C@H]2O; test: cyanidin formation at A580nm, 96-well plate, Michaelis-Menten; format: biochemical, Populus trichocarpa; conditions: GSH cofactor, 100 mM MOPSO pH 6.2, 30 °C, ascorbate, Fe(II), ultrafiltered substrate, apparent

Molecule: Oc1cc(O)c2c(c1)O[C@@H](c1ccc(O)c(O)c1)[C@H](O)C2 [compound 12, (−)-catechin]
- X-ray crystal structure, 1.09 Å (PtGSTF8): crystal structure of PtGSTF8 as a ternary complex with GSH and the substrate analogue (−)-catechin

Molecule: O=[N+]([O-])c1ccc(Cl)c([N+](=O)[O-])c1 [compound 5, 1-chloro-2,4-dinitrobenzene]
- GSH-transferase assay, A340nm, clarified E. coli lysate (VvGST2): all investigated GSTs were confirmed to be solubly and functionally produced
- GSH-transferase assay, A340nm, clarified E. coli lysate (PhAN9): all investigated GSTs were confirmed to be solubly and functionally produced
- GSH-transferase assay, A340nm, clarified E. coli lysate (ZmBZ2): all investigated GSTs were confirmed to be solubly and functionally produced
- GSH-transferase assay, A340nm, clarified E. coli lysate (AtTT19 [1]): all investigated GSTs were confirmed to be solubly and functionally produced
- GSH-transferase assay, A340nm, clarified E. coli lysate (AtGSTF2): all investigated GSTs were confirmed to be solubly and functionally produced

Molecule: Oc1cc(O)c2c(c1)O[C@H](c1ccc(O)c(O)c1)C(O)(O)[C@H]2O [compound 4]
- cyanidin formation by clarified E. coli lysate expressing the GST (AtTT19 [2]): arGSTs from maize (ZmBZ2), arabidopsis (AtTT19) and grapevine (VvGST4)

B1: PtGSTF8 (Populus trichocarpa) (protein)
chain: MVVKVYGPAMAVCPQRVMACLLEKGVEFDLVHVDLDSGEQKLPEFLLKQPFGQVPVVEDGDFKLFESRAIIRYYAAKYEDRGPNLLGNTLEEKALVDQWLEIEAHNFNDLVFNIVFQVVILPRIGQQGDSELVRTYEEKLEKVLDVYEQRLSKSKYLAGDSFTLADLSHLPATRYLVNEAGLGHLVKDRKKLNAWWEDISSRPAWKKLINLAGF
notes: full length, expressed in E. coli from pET-28b-based pANT35, GSTrap purified, apo (GSH removed with DTT)
- Km [3]: 147 ± 8 µM
- kcat [3]: 0.118 s⁻¹

Source: publication PMC10593608, “The catalytic role of glutathione transferases in heterologous anthocyanin biosynthesis” (Nature Catalysis, 2023)
